Data taken from patent publication US12276670B2, “Methods for identifying and treating adrenomyeloneuropathy (AMN)” (The General Hospital Corporation, priority 2017, dated 2025).
Entries after “also recorded” stand apart in the source; their conditions may differ.

B1: MFGE8: milk fat globule EGF factor 8 protein, supplemented to microglia at 50 ng/ml (protein, UniProt Q08431 24-387, looked up)
Lactadherin: LDICSKNPCHNGGLCEEISQEVRGDVFPSYTCTCLKGYAGNHCETKCVEPLGLENGNIANSQIAASSVRVTFLGLQHWVPELARLNRAGMVNAWTPSSNDDNPWIQVNLLRRMWVTGVVTQGASRLASHEYLKAFKVAYSLNGHEFDFIHDVNKKHKEFVGNWNKNAVHVNLFETPVEAQYVRLYPTSCHTACTLRFELLGCELNGCANPLGLKNNSIPDKQITASSSYKTWGLHLFSWNPSYARLDKQGNFNAWVAGSYGNDQWLQVDLGSSKEVTGIITQGARNFGSVQFVASYKVAYSNDSANWTEYQDPRTGSSKIFPGNWDNHSHKKNLFETPILARYVRILPVAWHNRIALRLELLGC

Tests used:
[1] = system: MFGE8; test: MFGE8 gene expression in primary isolated microglia; type: cell-based, mouse; settings: primary microglia from WT and Abcd1−/− mice, 15 uM
Experimental: (§1) In order to learn whether microglial changes seen in vivo were primary or secondary to axon degeneration, microglia was isolated from postnatal mice and molecular changes in unstimulated conditions was assessed as well as after LPS challenge. Microglia cultures were prepared as previously described (Tamashiro et al., 2012). Briefly, mixed glial cultures (˜95% astrocytes, ˜5% microglia) were prepared from the brain tissue of 1-3 day old mice. The tissue was trypsinized with 0.05% trypsin, and the cells were resuspended in glia complete medium DMEM (Lonza) supplemented with 10% fetal bovine serum (FBS), 100 IU/ml penicillin, 100 μg/ml streptomycin and 2 mM L-Glutamine. After 10-14 days in culture, microglia were isolated from the mixed glial cultures by the shake-off procedure. Specifically, loosely attached microglia were obtained from an incubator shaker at 250 rpm for 2 h at 37° C., the cell-containing medium was centrifuged at 1100 rpm for 3 minutes to collect microglia for subsequent culture. N9 microglia cells were cultured in RPMI 1640 medium supplemented with 10% FBS.
After observing an unexpected increase of phagocytosis-related biomarkers at the tissue level, whether gene expression of these markers would be altered in vitro was examined. […] The data was analyzed by calculating the delta Ct value between the tested gene and an internal control. […]

[2] = system: differentiated ReN cells in the co-culture system with primary Abcd1−/− microglia; test: Co-culture of differentiated neurons with primary Abcd1−/− microglia; type: cell-based
Experimental: As a bridging protein, MFGE8 tightly binds to exposed phosphatidylserine on surface membranes of stressed neurons and opsonizes them for phagocytosis. Indeed, in co-culture, Abcd1−/− microglia increased phagocytosis of phosphatidylserine-exposing neurons in both unstimulated and LPS-challenged conditions (FIG. 4E). For the co-culture of microglia and neurons, isolated microglia were seeded on top of differentiated neurons and co-cultured for 4 days with or without supplementation of VLCFA. For VLCFA supplementation, hexacosanoic acid (FFA C26:0) and Lysophosphatidylcholine (LPC) C16:0 and C26:0 (Avanti polar lipid) were solubilized in 50 mg/ml Methyl-β-cyclodextrin to make 3 mM stock solution and then supplemented into culture medium to reach designated concentration with Methyl-β-cyclodextrin as vehicle control. […] Tuj-1 immunofluoresece and degenerated axons were quantified in each group.
The most significant biochemical change caused by ABCD1 mutations is increased VLCFA levels including free fatty acid and LPC (in particular C24:0 and C26:0) in plasma and tissues. In order to determine whether neurons exposed to high VLCFA levels have PS exposure on their surfaces, neurons differentiated from ReN cells were treated with both C26:0 free fatty acid (FFA C26:0) and LPC C26:0 and then determined the PS exposure by Annexin V-FITC binding. […]

[3] = system: MFGE8; test: MFGE8 protein secretion in primary isolated microglia (ELISA); type: cell-based, mouse; settings: primary microglia from WT and Abcd1−/− mice, 15 uM
Experimental: as §1
An ELISA assay detected 2-fold higher MFGE8 protein secretion into media by Abcd1−/− microglia (FIG. 4D, P<0.05; MFGE8 and TNFa level in culture medium and spinal cord homogenate were measured using MFGE8 and TNFa ELISA kit (R&D) according to manufacturer's instructions). […]

[4] = system: neurons differentiated from ReN cells; test: PS exposure by Annexin V-FITC binding; type: cell-based, human; settings: treatment for 3 days at 10 μM or 20 μM
Experimental: The most significant biochemical change caused by ABCD1 mutations is increased VLCFA levels including free fatty acid and LPC (in particular C24:0 and C26:0) in plasma and tissues. In order to determine whether neurons exposed to high VLCFA levels have PS exposure on their surfaces, neurons differentiated from ReN cells were treated with both C26:0 free fatty acid (FFA C26:0) and LPC C26:0 and then determined the PS exposure by Annexin V-FITC binding. Immortalized hNPC cell line ReNcell VM (ReN) was used to differentiate into neurons according to a published protocol (Kim et al., 2015). Simply, ReN cells were grown in proliferation medium (DMEM/F12 (Gibco/Life Technologies) with 2 μg/ml heparin (stock, STEMCELL Technologies), 2% B27 (Life Technologies), 20 ng/ml EGF, 20 ng/ml bFGF and 1% of 100× penicillin/streptomycin (Gibco/Life Technologies) until confluency. For differentiation, 3×10^4 cells were seeded on matrigel-coated (1:100 dilution in DMEM/F12) 8 well chamber slides and grown in differentiation medium (DMEM/F12 (Gibco/Life Technologies) with 2 μg/ml heparin (stock, STEMCELL Technologies), 2% B27 (Life Technologies) and 1% of 100× penicillin/streptomycin (Gibco/Life Technologies) for 2-3 weeks prior to co-culture with microglia.

[5] = system: neurons differentiated from ReN cells; test: Cleaved-caspase and Tuj 1 staining after VLCFA treatment; type: cell-based, human; settings: for cleaved-caspase staining (late apoptosis): differentiated ReN neurons after FFA C26:0 or LPC C26:0 treatment
[6] = system: MFGE8; test: MFGE8 gene expression in N9 microglia; type: cell-based; settings: 30 uM, 3 days
Experimental: as §1
After observing an unexpected increase of phagocytosis-related biomarkers at the tissue level, whether gene expression of these markers would be altered in vitro was examined. Total RNA from cells or tissues were isolated using Qiagen RNeasy Mini Kit (Qiagen). First-strand cDNA synthesis used 100 ng random primer (Life Technologies), […], 10 mM dNTP, and 200 units of reverse transcriptase (Life Technologies) per 20 μL reactions. PCRs were performed in duplicates in a 25 μl final volume by using SYBR Green master mix from Applied Biosystems (Life Technologies). The data was analyzed by calculating the delta Ct value between the tested gene and an internal control.
In order to examine whether VLCFA has any effect on MFGE8 expression, microglial cell lines (N9) were treated with 30 uM FFA C26:0, LPC C16:0 and LPC C26:0 separately for 3 days.

[7] = system: primary microglia from Abcd1−/− mice; test: Microglial phagocytosis assay (PS exposing SH-SY5Y neurons seeded on microglia); type: cell-based, mouse; settings: primary Abcd1−/− microglia pretreated 12 hours; MFGE8 at 50 ng/ml; 4 hours co-culture
Experimental: To validate the impact of MFGE8, primary microglia from Abcd1−/− mice were pretreated with either MFGE8 (50 ng/ml) or MFGE8 antibody for 12 hours and then phagocytosis was assessed by performing a microglial phagocytosis assay. Microglia were seeded in 8-well chamber (7×10^4/well in complete medium) and cultured for 24 hours. SH-SY5Y cells were treated with 100 uM H2O2 for 12 hours to induce phosphatidylserine (PS) exposure on cell surface. Floating SH-Sy5Y cells were then collected by centrifuge at 1000 g for 3 minutes, resuspended in serum free medium and stained with 3 μM CMTPX (red)(Life Science Technologies)(1:1000 dilution) for 30 minutes. A portion of the floating cells was subjected to Annexin V-FITC staining to confirm the exposure of phosphatidylserine. The remnant was washed twice and seeded (same amount as microglia) on top of the microglial layer. After 4 hours co-culture, cells were washed with PBS and fixed with 4% paraformaldehyde (PFA) for 15 min at room temperature. Microglia were then stained with IBA1 antibody (Wako) overnight followed by Alexa Fluor-488 conjugated second antibody. For quantification, 5 random images were taken from each chamber well using a confocal microscope (Zeiss). The total number of phagocytosed particles as well as cell-sized particles was counted and divided by microglia cell number.

Row | Molecule | MFGE8 expression at mRNA level [1] | decrease of Tuj 1 expression ([2]; 15 uM LPC C26:0, co-culture 4 days) [%] | axon degeneration (quantification of degenerated axons) ([2]; co-culture system with LPC C26:0 supplementation, with or without MFGE8 antibody) | MFGE8 expression at protein level (secretion) [3] | PS exposure on cell surface (Annexin V-FITC) [4] | cleaved-caspase staining (late apoptosis) [5] | neuronal marker Tuj 1 morphology ([5]; differentiated ReN neurons after LPC C26:0 treatment) | MFGE8 mRNA expression [6] | microglial phagocytosis of PS exposing neurons [7]
1 | CCCCCCCCCCCCCCCCCCCCCCCCCC(=O)OC[C@@H](O)COP(=O)([O-])OCC[N+](C)(C)C [LPC C26:0, Lysophosphatidylcholine (LPC) C26:0] | significant increases | 20 | increased axon degeneration | significant increases | remarkable dose dependent PS exposure; also recorded: showed exposure of phosphatidylserine (PS) | did not reveal a notable positive signal; also recorded: little late apoptosis | did not show significant morphological changes | significantly increased | 
2 | CCCCCCCCCCCCCCCC(=O)OC[C@@H](O)COP(=O)([O-])OCC[N+](C)(C)C [LPC C16:0, Lysophosphatidylcholine (LPC) C16:0] |  |  |  |  |  |  |  | did not have an effect | 
3 | CCCCCCCCCCCCCCCCCCCCCCCCCC(=O)O [FFA C26:0, hexacosanoic acid] |  |  |  |  | did not induce significant PS exposure | did not reveal a notable positive signal |  | did not have an effect | 
4 | B1 |  |  |  |  |  |  |  |  | significant increase; also recorded: dramatically increased
